Key:
HSV-1 = details: noncytotoxic doses, A549 human lung cells; cited from earlier work
[1] = test system: stimulated human peripheral blood lymphocytes; details: concentrations ten times above maximal effective concentration; cited from earlier work
HIV rgp120 to CD4 = HIV rgp120 to CD4 (UniProt P01730+P04578); details: cited from earlier work
LPS-stimulated RAW 264.7 = details: cited from earlier work
HepG2 cells = details: cited from earlier work
[2] = compared with ascorbic acid, butylated hydroxyl toluene, alpha-tocopherol, arbutin and kojic acid; cited from earlier work
5-LOX = details: cited from earlier work
Smad pathway = details: through inhibition of the Smad pathway; cited from earlier work
COX-2 = molecular target: T1, COX-2 (Homo sapiens, UniProt P35354); details: cited from earlier work
T1 sequence (P35354 18-604): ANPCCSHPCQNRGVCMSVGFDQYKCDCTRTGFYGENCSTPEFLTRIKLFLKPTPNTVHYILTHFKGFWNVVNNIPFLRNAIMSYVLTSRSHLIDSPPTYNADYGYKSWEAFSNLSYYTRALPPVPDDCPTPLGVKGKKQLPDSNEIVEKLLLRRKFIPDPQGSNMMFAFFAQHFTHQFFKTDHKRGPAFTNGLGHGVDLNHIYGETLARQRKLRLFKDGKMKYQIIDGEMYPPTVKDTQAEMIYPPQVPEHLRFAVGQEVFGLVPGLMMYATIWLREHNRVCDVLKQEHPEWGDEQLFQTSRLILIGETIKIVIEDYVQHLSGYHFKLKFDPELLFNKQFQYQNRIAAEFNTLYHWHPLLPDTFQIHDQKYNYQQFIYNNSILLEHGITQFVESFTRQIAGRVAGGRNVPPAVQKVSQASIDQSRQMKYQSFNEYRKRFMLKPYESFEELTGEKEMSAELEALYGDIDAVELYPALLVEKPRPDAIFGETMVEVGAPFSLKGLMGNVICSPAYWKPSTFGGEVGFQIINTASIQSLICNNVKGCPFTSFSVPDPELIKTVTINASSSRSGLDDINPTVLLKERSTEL

PRMI-7951 melanoma cells = details: cited from earlier work
[3] = test system: HCT-15, COLO-205, MDA-MB-231, DU-145 and K562 cell lines; details: cited from earlier work
COX-1 = details: cited from earlier work
melanin = details: compared with ascorbic acid, butylated hydroxyl toluene, alpha-tocopherol, arbutin and kojic acid; cited from earlier work
[4] = test system: collagen-induced arthritis; details: mice; cited from earlier work
[5] = Thermal stability during aqueous extraction at 80±5° C. (HPLC); format: physicochemical; details: different time points
Experimental: In another experiment, fruit pericarp portions of T. Chebula (50 g) were pulverized and the resulting powder was extracted with distilled water (300 ml) for 12 hours, with a continuous stirring (400 RPM), separately at different temperatures 30±5° C., 40±5° C., 60±5° C. and 80±5° C. using a pressure reactor. Aliquots of the samples were withdrawn at different time intervals during extraction, spray dried and analyzed for bioactives (Chebulagic acid, Chebulinic acid and other LMwHTs) by HPLC (as discussed above). The results are incorporated in Tables 3-6. As used herein, “0 hour” extraction refers to “instant extraction,” which for the purpose of this disclosure means distilled water was added to the pulverized powder on a thermostatic water bath, stirred for 5 minutes and an aliquot of the sample withdrawn and analyzed.

[6] = rats; cited from earlier work
[7] = test system: human cervical carcinoma HeLa cells; details: cited from earlier work
K562 cells = details: concentration-dependent; cited from earlier work
[8] = test system: MCF-7, S115, HOS-1, PC-3 and PNT1A cell lines; details: cited from earlier work
[9] = test system: cytotoxic T-lymphocyte (CTL)-mediated cytotoxicity; details: cited from earlier work

O=C1O[C@H]2[C@@H]3OC(=O)c4cc(O)c(O)c(O)c4-c4c(O)c(O)c5oc(=O)c6c(c(O)c(O)c7oc(=O)c4c5c76)-c4c(cc(O)c(O)c4O)C(=O)OC[C@H]3OC(O)[C@@H]2OC(=O)c2cc(O)c(O)c(O)c2-c2c1cc(O)c(O)c2O (mixture of isomers) [punicalagin]
inhibition of HSV-1 entry (HSV-1): inhibit HSV-1 entry

O=C1OC[C@H]2OC(O)[C@H](O)[C@@H](O)[C@@H]2OC(=O)c2cc(O)c(O)c(O)c2-c2c(O)c(O)c3oc(=O)c4c(c(O)c(O)c5oc(=O)c2c3c54)-c2c1cc(O)c(O)c2O (mixture of isomers) [punicalin]
toxicity to lymphocytes [1]: not toxic | blocking of binding of HIV rgp120 to CD4 (HIV rgp120 to CD4): block the binding

O=C(O)CC1C(=O)OC2C3COC(=O)c4cc(O)c(O)c(O)c4-c4c(cc(O)c(O)c4O)C(=O)OC2C(OC(=O)c2cc(O)c(O)c4c2C1C(O)C(=O)O4)C(OC(=O)c1cc(O)c(O)c(O)c1)O3 [Chebulagic acid, beta-1-O-galloyl-2,4-chebuloyl-3,6-(R)-hexahydroxydiphenoyl-D-glucose]
anti-inflammatory effects (LPS-stimulated RAW 264.7): potent anti-inflammatory effects | enhancement of cytotoxicity of doxorubicin (HepG2 cells; HepG2 cells): 20 fold | interaction with doxorubicin by Combination Index (CI), cell growth inhibition (HepG2 cells): strong synergistic interaction | DPPH radical scavenging activity versus reference antioxidants [2]: stronger | IC50 (5-LOX): 2.1 ± 0.057 µM | antifibrotic activity (Smad pathway): antifibrotic activity | inhibition of HSV-1 entry (HSV-1): inhibit HSV-1 entry | IC50 (COX-2): 0.92 ± 0.011 µM | cytotoxicity (PRMI-7951 melanoma cells): cytotoxic properties | anti-proliferative activity [3]: anti-proliferative activity | IC50 (COX-1): 15 ± 0.288 µM | melanin inhibitory activity versus reference agents (melanin): stronger | onset and progression of collagen-induced arthritis [4]: suppress the onset and progression | thermal stability [5]: thermolabile

O=C(O)CC1C(=O)OC2C(COC(=O)c3cc(O)c(O)c(O)c3)OC(OC(=O)c3cc(O)c(O)c(O)c3)C(OC(=O)c3cc(O)c(O)c4c3C1C(O)C(=O)O4)C2OC(=O)c1cc(O)c(O)c(O)c1 [Chebulinic acid, 1,3,6-tri-O-galloyl-2,4-chebuloyl-beta-D-glucose]
DPPH radical scavenging activity versus reference antioxidants [2]: stronger | antifibrotic activity (Smad pathway): antifibrotic activity | toxicity to lymphocytes [1]: not toxic | blood pressure effect [6]: blood pressure lowering effect | anti-tumor properties [7]: anti-tumor properties | hemoglobin synthesis (K562 cells): inhibited the hemoglobin synthesis | blocking of binding of HIV rgp120 to CD4 (HIV rgp120 to CD4): block the binding | melanin inhibitory activity versus reference agents (melanin): stronger | growth inhibition [8]: growth inhibitory | thermal stability [5]: thermolabile

O=C(O[C@H]1[C@@H]2OC(=O)c3cc(O)c(O)c(O)c3-c3c(cc(O)c(O)c3O)C(=O)OC[C@H]2OC(O)[C@@H]1OC(=O)c1cc(O)c(O)c(O)c1)c1cc(O)c(O)c(O)c1 (stereo partly shown) [Tellimagrandin I]
anti-tumor properties [7]: anti-tumor properties

O=C(O)C[C@H](C(=O)O)[C@H]1c2c(cc(O)c(O)c2O)C(=O)O[C@@H]1C(=O)O [chebulic acid]
blocking of CTL-mediated cytotoxicity [9]: blocked

O=c1oc2c(O)c(O)cc3c(=O)oc4c(O)c(O)cc1c4c23 [ellagic acid]
growth inhibition [8]: growth inhibitory

O=C(OC[C@H]1O[C@@H](OC(=O)c2cc(O)c(O)c(OC(=O)c3cc(O)c(O)c(O)c3)c2)[C@H](OC(=O)c2cc(O)c(O)c(OC(=O)c3cc(O)c(O)c(O)c3)c2)[C@@H](OC(=O)c2cc(O)c(O)c(OC(=O)c3cc(O)c(O)c(O)c3)c2)[C@@H]1OC(=O)c1cc(O)c(O)c(OC(=O)c2cc(O)c(O)c(O)c2)c1)c1cc(O)c(O)c(OC(=O)c2cc(O)c(O)c(O)c2)c1 [tannic acid]
growth inhibition [8]: growth inhibitory

From patent US20130266676A1, “TERMINALIA CHEBULA COMPOSITIONS AND METHOD OF EXTRACTING SAME” (NATREON, INC., priority 2012, published 2013)
